Laboratory results reported in publication PMC7961380, “A Systematic Study of the In Vitro Pharmacokinetics and Estimated Human In Vivo Clearance of Indole and Indazole-3-Carboxamide Synthetic Cannabinoid Receptor Agonists Detected on the Illicit Drug Market” (Molecules, 2021).

How the values were obtained:
[1] = tested on: pooled human cryopreserved hepatocytes (pHHeps); assay: Metabolic stability, pooled human cryopreserved hepatocyte incubations
[2] = Metabolic stability, pooled human liver microsome incubations
Procedure: Total incubation volume was 500 µL. Procedure: Test compound working solutions (50 µM in potassium phosphate buffer (pH 7.4)) were prepared (<1% DMSO). pHLM were thawed and diluted in potassium phosphate buffer (pH 7.4). […] Reactions were quenched in 200 µL ACN spiked with donepezil (IS, 50 ng mL^−1). […] Samples were analysed by UPLC-MS/MS in a 96 deep-well 2 mL plate. Each SCRA was incubated at least in triplicate but additional incubations were carried out across a number of analytical batches, giving greater replication and a greater understanding of system variability. Microsomal scaling factors used for human liver microsome incubations in the literature vary. Intrinsic clearance and predicted in vivo clearance rates calculated using alternative scaling factors found in the literature is provided in Section S6 of the supplementary information, to aid comparison of data between publications.
Equations used for in vitro intrinsic clearance calculation and human in vivo clearance […]
The equations used for in vitro intrinsic clearance calculation and human in vivo clearance estimation […]
Microsomal clearance (HLM incubations) in mL min-1 mg microsomal protein-1 [3]
Intrinsic clearance (whole-liver dimensions) (HLM incubations) in mL min-1 kg-1 [3] CL = k x V x [Liver](g) x SF Eqn. 7 […]
mg g microsomal protein-1 [7]
Intrinsic clearance (whole-liver dimensions) (HHep incubations) in mL min-1 kg-1 [4] CL = k x V x hepatocytes/g liver x [Liver](g) Eqn. 8 […]
Where: hepatocytes/g liver = 107x10^6 cells/g liver
Hepatic clearance in mL min-1 kg-1 [3]
[…] Eqn. 9
Where: Q = hepatic blood flow, 21 mL min-1 kg-1 [9]; fu = fraction unbound (plasma); CLint = […]
Estimated human hepatic extraction ratio [5]
Intrinsic clearance data – pooled human liver microsome incubations […]
table S4-28. Intrinsic clearance and predicted in vivo data calculated using alternative microsomal scaling factors found in the literature – 32 [10] and 45 [11] mg microsomal protein per gram liver – are provided in tables S29 and S30, respectively.

[3] = pHHeps, 99x10^6 hepatocytes per gram liver
[4] = pHLM, scaling factor 32 mg microsomal protein per gram liver
[5] = pHLM, scaling factor 45 mg microsomal protein per gram liver

SMILES: CC(C)[C@H](NC(=O)c1nn(CC2CCCCC2)c2ccccc12)C(N)=O [(S)-AB-[…] (11)] [N-[1-amino-3-methyl-1-oxobutan-2-yl]-1-(cyclohexylmethyl)-1H-indazole-3-carboxamide]
- Predicted In Vivo Hepatic Clearance, CLH ([1]; from pHHeps CLint, well-stirred model with plasma fu, Q 21 mL min^−1 kg^−1): 4.52 ± 1.12 mL/min/kg
- Hepatic extraction ratio, EH ([1]; from pHHeps incubations): 0.22 ± 0.053
- Hepatic extraction ratio, EH [1, 3]: 0.20 ± 0.051
- Predicted in vivo hepatic clearance, CLH [1, 3]: 4.26 ± 1.08 mL/min/kg
- % parent compound remaining, Average ([1]; pHHeps, 3 min, […]): 96.9%
- % parent compound remaining, Average ([1]; pHHeps, 6 min, […]): 85.7%
- % parent compound remaining, Average ([1]; pHHeps, 9 min, […]): 81.8%
- % parent compound remaining, Average ([1]; pHHeps, 15 min, […]): 88.6%
- % parent compound remaining, Average ([1]; pHHeps, 30 min, […]): 65.5%
- % parent compound remaining, Average ([1]; pHHeps, 45 min, […]): 63.2%
- % parent compound remaining, Average ([1]; pHHeps, 60 min, […]): 53.4%
- Predicted In Vivo Hepatic Clearance, CLH ([2]; from pHLM CLint, well-stirred model with plasma fu, Q 21 mL min^−1 kg^−1): 1.77 ± 0.17 mL/min/kg
- Hepatic extraction ratio, EH ([2]; from pHLM incubations): 0.08 ± 0.008
- % parent compound remaining, Average ([2]; pHLM, 3 min, […]): 76.2%
- % parent compound remaining, Average ([2]; pHLM, 6 min, […]): 76.7%
- % parent compound remaining, Average ([2]; pHLM, 9 min, […]): 70.6%
- % parent compound remaining, Average ([2]; pHLM, 15 min, […]): 61.7%
- % parent compound remaining, Average ([2]; pHLM, 30 min, […]): 45.8%
- Microsomal Intrinsic Clearance, CLint micr ([2]; pHLM, n ≥ 3 ± SD): 0.051 ± 0.005 mL min^−1 mg Microsomal Protein^−1
- Hepatic extraction ratio, EH [2, 4]: 0.05 ± 0.005
- Predicted in vivo hepatic clearance, CLH [2, 4]: 1.12 ± 0.11 mL/min/kg
- Hepatic extraction ratio, EH [2, 5]: 0.08 ± 0.007
- Predicted in vivo hepatic clearance, CLH [2, 5]: 1.54 ± 0.15 mL/min/kg

SMILES: CC(C)[C@@H](NC(=O)c1nn(Cc2ccc(F)cc2)c2ccccc12)C(N)=O [(R)-AB-FUBINACA (8), N-(1-amino-3-methyl-1-oxobutan-2-yl)-1-(4-fluorobenzyl)-1H-indazole-3-carboxamide]
- T1/2 ([1]; pHHeps 0.25 million cells mL^−1, 0.5 µM, 37 °C, n ≥ 3 ± SD): 1.15 ± 0.183 h
- % parent compound remaining, Average ([1]; pHHeps, 3 min): 96.7%
- % parent compound remaining, Average ([1]; pHHeps, 6 min): 86.5%
- % parent compound remaining, Average ([1]; pHHeps, 9 min): 84.9%
- % parent compound remaining, Average ([1]; pHHeps, 15 min): 84.4%
- % parent compound remaining, Average ([1]; pHHeps, 30 min): 75.2%
- % parent compound remaining, Average ([1]; pHHeps, 45 min): 82.9%
- % parent compound remaining, Average ([1]; pHHeps, 60 min): 78.8%
- Intrinsic clearance, CLint ([1]; pHHeps, alternative hepatocyte cell density 99x10^6 hepatocytes per gram liver): 105 ± 14.6 mL/min/kg
- T1/2 ([2]; pHLM 0.5 mg mL^−1, 0.5 µM, NADPH, 37 °C, n ≥ 3 ± SD): 2.42 ± 0.75 h
- % parent compound remaining, Average ([2]; pHLM, 3 min): 89.5%
- % parent compound remaining, Average ([2]; pHLM, 6 min): 90.5%
- % parent compound remaining, Average ([2]; pHLM, 9 min): 88.4%
- % parent compound remaining, Average ([2]; pHLM, 15 min): 82.9%
- % parent compound remaining, Average ([2]; pHLM, 30 min): 83.9%
- Intrinsic clearance, CLint ([2]; pHLM, alternative microsomal scaling factor 45 mg microsomal protein per gram liver): 11.8 mL/min/kg
- Microsomal Intrinsic Clearance, CLint micr ([2]; pHLM, n ≥ 3 ± SD): 0.010 ± 0.003 mL min^−1 mg Microsomal Protein^−1

SMILES: COC(=O)C(NC(=O)c1nn(CCCCCF)c2ccccc12)C(C)C (stereo in doubt) [(R)-5F-AMB-PINACA (10), methyl [1-(5-fluoropentyl)-1H-indazole-3-carbonyl]valinate]
- % parent compound remaining, Average ([1]; pHHeps, 3 min): 69.9%
- % parent compound remaining, Average ([1]; pHHeps, 6 min): 35.6%
- % parent compound remaining, Average ([1]; pHHeps, 9 min): 28.2%
- % parent compound remaining, Average ([1]; pHHeps, 15 min): 12.1%
- % parent compound remaining, Average ([1]; pHHeps, 30 min): 3.1%
- % parent compound remaining, Average ([1]; pHHeps, 45 min): 0.9%
- % parent compound remaining, Average ([1]; pHHeps, 60 min): 0.2%
- % parent compound remaining, Average ([2]; pHLM, 3 min): 64.1%
- % parent compound remaining, Average ([2]; pHLM, 6 min): 51.0%
- % parent compound remaining, Average ([2]; pHLM, 9 min): 38.0%
- % parent compound remaining, Average ([2]; pHLM, 15 min): 21.7%
- % parent compound remaining, Average ([2]; pHLM, 30 min): 6.8%
- Microsomal Intrinsic Clearance, CLint micr ([2]; pHLM, n ≥ 3 ± SD): 0.213 ± 0.014 mL min^−1 mg Microsomal Protein^−1

SMILES: CCOc1ccc2ccc(=O)oc2c1 [7-ethoxycoumarin, reference compound]
- % parent compound remaining, Average ([1]; pHHeps, 3 min): 91.4%
- % parent compound remaining, Average ([1]; pHHeps, 6 min): 89.4%
- % parent compound remaining, Average ([1]; pHHeps, 9 min): 80.0%
- % parent compound remaining, Average ([1]; pHHeps, 15 min): 73.7%
- % parent compound remaining, Average ([1]; pHHeps, 30 min): 54.9%
- % parent compound remaining, Average ([1]; pHHeps, 45 min): 40.7%
- % parent compound remaining, Average ([1]; pHHeps, 60 min): 29.0%
- Intrinsic clearance, CLint ([1]; pHHeps, scaled to whole liver, 107x10^6 cells/g liver): 55 to 305 mL/min/kg

SMILES: COC(=O)C(NC(=O)c1cn(CC2CCCCC2)c2ccccc12)C(C)C (stereo in doubt) [(R)-AMB-CHMICA (9), methyl [1-(cyclohexylmethyl)-1H-indole-3-carbonyl]valinate]
- % parent compound remaining, Average ([1]; pHHeps, 3 min): 62.7%
- % parent compound remaining, Average ([1]; pHHeps, 6 min): 61.2%
- % parent compound remaining, Average ([1]; pHHeps, 9 min): 45.1%
- % parent compound remaining, Average ([1]; pHHeps, 15 min): 26.7%
- % parent compound remaining, Average ([1]; pHHeps, 30 min): 11.8%
- % parent compound remaining, Average ([1]; pHHeps, 45 min): 5.9%
- % parent compound remaining, Average ([1]; pHHeps, 60 min): 3.2%
- % parent compound remaining, Average ([2]; pHLM, 3 min): 73.0%
- % parent compound remaining, Average ([2]; pHLM, 6 min): 53.6%
- % parent compound remaining, Average ([2]; pHLM, 9 min): 47.4%
- % parent compound remaining, Average ([2]; pHLM, 15 min): 30.4%
- % parent compound remaining, Average ([2]; pHLM, 30 min): 11.3%
- Microsomal Intrinsic Clearance, CLint micr ([2]; pHLM, n ≥ 3 ± SD): 0.167 ± 0.019 mL min^−1 mg Microsomal Protein^−1
